PubChem BioAssay AID256 (DTP/NCI, 2004)
Toxic doses and inconclusive results are not listed. Rule for the calls: active = survival T/C of 150% or more; inactive = T/C below 125% in these data.

Test system: CD2F1 mice, L1210 leukemia ip, survival T/C
Test: NCI In Vivo Anticancer Drug Screen. Data for tumor model L1210 Leukemia (intraperitoneal) in CD2F1 (CDF1) mice
Settings: higher = longer survival
Procedure, shortened: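 Each value reflects a quotient of treated over vehicle control outcomes in mice with a transplanted tumor.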

[1] = endpoint: mean survival time, dose: 100.0 mg/kg/injection, schedule: Q01DX001 (ip), vehicle: saline with Tween-80
[2] = endpoint: mean survival time, dose: 200.0 mg/kg/injection, schedule: Q01DX001 (ip), vehicle: saline with Tween-80
[3] = endpoint: mean survival time, dose: 400.0 mg/kg/injection, schedule: Q01DX001 (ip), vehicle: saline with Tween-80
[4] = endpoint: mean survival time, dose: 100.0 mg/kg/injection, schedule: Q04DX003 (ip), vehicle: saline with Tween-80
[5] = endpoint: mean survival time, dose: 200.0 mg/kg/injection, schedule: Q04DX003 (ip), vehicle: saline with Tween-80
[6] = endpoint: mean survival time, dose: 400.0 mg/kg/injection, schedule: Q04DX003 (ip), vehicle: saline with Tween-80
[7] = endpoint: mean survival time, dose: 50.0 mg/kg/injection, schedule: Q01DX009 (ip), vehicle: Klucel (hydroxypropylcellulose) (HPC)
[8] = endpoint: mean survival time, dose: 100.0 mg/kg/injection, schedule: Q01DX009 (ip), vehicle: Klucel (hydroxypropylcellulose) (HPC)
[9] = endpoint: mean survival time, dose: 100.0 mg/kg/injection, schedule: Q01DX001 (ip), vehicle: saline
[10] = endpoint: mean survival time, dose: 200.0 mg/kg/injection, schedule: Q01DX001 (ip), vehicle: saline
[11] = endpoint: mean survival time, dose: 400.0 mg/kg/injection, schedule: Q01DX001 (ip), vehicle: saline

Measured: T/C

CCCCCCCCCCCCCCCCCCCOc1ccc(OCCCCCCCCCCCC)cc1
inactive: [1] 93 % of control | [2] 89 % of control | [3] 88 % of control

CC(C)(C)OC(=O)Nc1cccc(O)c1
inactive: [4] 100 % of control | [5] 96 % of control | [6] 93 % of control

CN1CCN(Cc2cn(C3CC(O)C(CO)O3)c(=O)[nH]c2=O)c2ccccc21 (centres undefined)
inactive: endpoint: mean survival time, dose: 12.5 mg/kg/injection, schedule: Q01DX005 (ip), vehicle: distilled water + Tween-80 93 % of control | endpoint: mean survival time, dose: 25.0 mg/kg/injection, schedule: Q01DX005 (ip), vehicle: distilled water + Tween-80 93 % of control | endpoint: mean survival time, dose: 50.0 mg/kg/injection, schedule: Q01DX005 (ip), vehicle: distilled water + Tween-80 93 % of control | endpoint: mean survival time, dose: 100.0 mg/kg/injection, schedule: Q01DX005 (ip), vehicle: distilled water + Tween-80 103 % of control | endpoint: mean survival time, dose: 200.0 mg/kg/injection, schedule: Q01DX005 (ip), vehicle: distilled water + Tween-80 93 % of control

O=C(/C=C(\CN1CCCCC1)c1ccccc1)c1ccccc1
inactive: endpoint: mean survival time, dose: 25.0 mg/kg/injection, schedule: Q01DX009 (ip), vehicle: Klucel (hydroxypropylcellulose) (HPC) 95 % of control | [7] 105 % of control | [8] 94 % of control

COc1ccc2c(c1)C1(C)CCCC(C#N)C1CC2 (centres undefined)
inactive: [9] 101 % of control | [10] 96 % of control | [11] 94 % of control

COc1cc2c(cc1OC)C(Cc1ccc([N+](=O)[O-])cc1)=NCC2
inactive: [9] 96 % of control | [10] 96 % of control | [11] 102 % of control

COc1ccc2ccccc2c1C1/C(=N/O)CCc2ccccc21 (centres undefined)
inactive: endpoint: mean survival time, dose: 12.5 mg/kg/injection, schedule: Q01DX009 (ip), vehicle: other 98 % of control | endpoint: mean survival time, dose: 25.0 mg/kg/injection, schedule: Q01DX009 (ip), vehicle: other 94 % of control | endpoint: mean survival time, dose: 50.0 mg/kg/injection, schedule: Q01DX009 (ip), vehicle: other 98 % of control | endpoint: mean survival time, dose: 100.0 mg/kg/injection, schedule: Q01DX009 (ip), vehicle: other 98 % of control | endpoint: mean survival time, dose: 200.0 mg/kg/injection, schedule: Q01DX009 (ip), vehicle: other 96 % of control

CCCCC(CCC)OC(=O)Nc1cccc2ccccc12 (centres undefined)
inactive: [1] 93 % of control | [2] 93 % of control | [3] 93 % of control

N#CCCCN1C(=O)c2ccccc2C1=O
inactive: [7] 99 % of control | [8] 97 % of control | endpoint: mean survival time, dose: 200.0 mg/kg/injection, schedule: Q01DX009 (ip), vehicle: Klucel (hydroxypropylcellulose) (HPC) 99 % of control

COC(=O)c1cc(Cl)ccc1OCC(=O)Nc1ccccc1
inactive: [1] 90 % of control | [2] 94 % of control | [3] 94 % of control

Cc1nc2c(O)cccn2c(=O)c1Cl
inactive: [4] 102 % of control

[Cl][Pt+2][Cl].[NH-]CC([NH-])c1ccc2oc3ccccc3c2c1 (centres undefined)
inactive: endpoint: median survival time, dose: 10.0 mg/kg/injection, schedule: Q04DX003 (ip), vehicle: saline 100 % of control | endpoint: median survival time, dose: 20.0 mg/kg/injection, schedule: Q04DX003 (ip), vehicle: saline 94 % of control | endpoint: median survival time, dose: 40.0 mg/kg/injection, schedule: Q04DX003 (ip), vehicle: saline 105 % of control | endpoint: median survival time, dose: 80.0 mg/kg/injection, schedule: Q04DX003 (ip), vehicle: saline with Tween-80 107 % of control | endpoint: median survival time, dose: 80.0 mg/kg/injection, schedule: Q04DX003 (ip), vehicle: saline 110 % of control

CC1(C)C(C(=O)/C=C/c2ccccc2)C1[N+](=O)[O-] (centres undefined)
inactive: endpoint: mean survival time, dose: 100.0 mg/kg/injection, schedule: Q04DX002 (ip), vehicle: other 97 % of control | endpoint: mean survival time, dose: 200.0 mg/kg/injection, schedule: Q04DX002 (ip), vehicle: other 97 % of control | endpoint: mean survival time, dose: 400.0 mg/kg/injection, schedule: Q04DX002 (ip), vehicle: other 97 % of control

CCOCC(C(=O)OCC)C(=O)OCC
inactive: [4] 104 % of control | [5] 102 % of control | [6] 104 % of control

OC(CBr)C(O)CBr (centres undefined)
inactive: endpoint: mean survival time, dose: 50.0 mg/kg/injection, schedule: Q01DX009 (ip), vehicle: saline with Tween-80 108 % of control | endpoint: mean survival time, dose: 50.0 mg/kg/injection, schedule: Q01DX009 (ip), vehicle: saline 108 % of control | [1] 102 % of control | endpoint: mean survival time, dose: 100.0 mg/kg/injection, schedule: Q01DX009 (ip), vehicle: saline with Tween-80 106 % of control | endpoint: mean survival time, dose: 100.0 mg/kg/injection, schedule: Q01DX009 (ip), vehicle: saline 108 % of control | [4] 102 % of control | [2] 109 % of control | [5] 86 % of control
